Here are results for 1 compound from PMC8896928, “Preparation, Characterization, and Preliminary Imaging Study of [^188Re]Re-Ibandronate as a Novel Theranostic Radiopharmaceutical for Bone Metastasis” (Contrast Media & Molecular Imaging, 2022).

For data set [1], the system named is nude mice of bone metastasis model (PC-3, MDA-MB-231, left tibia). The conditions noted are these: for ROI ratio of model bone/contralateral bone (mean): bone imaging. The method, then: The nude mice of the bone metastasis model were established by tibial bone marrow injection. The specific methods were as follows: 25 μL of prostate cancer PC-3 and breast cancer MDA-MB-231 cell culture medium were injected into the left tibial bone marrow cavity of healthy male and female nude mice, respectively. At approximately 3-4 weeks after inoculation, they were scanned by microcomputed tomography (CT, SIEMENS InveonTM, Munich, Germany) to determine the condition of the model. […] Bone metastases were initially evaluated by CT and confirmed by pathology after the completion of related studies.
The nude mice were injected with [^18F]F-sodium fluoride (NaF), [^99mTc]Tc-methylene diphosphonate (MDP), and [^188Re]Re-IBA at the first, second, and fifth days, respectively, for bone imaging. […]/computed tomography (PET/CT) acquisition equipment was SIEMENS InveonTM. Single-photon emission computed tomography/computed tomography (SPECT/CT) acquisition equipment was GE SPECT, pinhole collimator.

For data set [2] the following is noted: 37°C. The method, then: The RCP of [^188Re]Re-IBA was determined by PC. Acetone and 0.9% NaCl were used as the eluents. A TLC scanner was used to measure the distribution of radioactivity on the PC strips. The RCP of [^188Re]Re-IBA was calculated from the peak area measurements as follows: […]
Freshly prepared [^188Re]Re-IBA was incubated in 0.9% NaCl and fresh human serum at 37°C. The RCP of the tubes was determined by PC at 1 h, 3 h, 6 h, 12 h, and 24 h. The experiment was repeated thrice. The results are expressed as mean ± standard deviation ( χ¯ ± s).

The subject of a further data set is Kunming mice. Here is the method: Sixteen Kunming mice were randomly divided into four groups (equal number of males and females): normal control group and low-, middle-, and high-dose [^188Re]Re-IBA groups. The control group was injected with 0.9% NaCl, and the experimental groups were injected with [^188Re]Re-IBA solution of 3.7 MBq, 18.5 MBq, and 37 MBq, respectively. The body weight and general condition of the mice in each group were measured. After 4 weeks, the blood of the mice in each group was drawn for routine blood examination and liver and kidney function. A pathological examination of important tissue and organs was performed.
SPSS 26.0 was used for statistical analysis, and the quantitative data were expressed as mean ± standard deviation ( χ¯ ± s). In the toxicity test, repeated-measures analysis of variance was used to compare the body weight of mice in each group. P < 0.05 was considered statistically significant.

SMILES strings stand for the structures. “And” between values parts separate entries of the source, which are not always exact repeats. Equal values may be shown once. Read-outs that look alike come from different tables or passages of the source.

On to `CCCCCN(C)CCC1(O)P(=O)(O)[O][188Re]2([OH])([OH])([O]P1(=O)O)[O]P(=O)(O)C(O)(CCN(C)CCCCC)P(=O)(O)[O]2` (centres unmarked) [[^188Re]Re-IBA], for which, in data set [1] (1–3 h after injection, concentration mainly in surrounding soft tissue), the “Bone imaging, uptake in the model side vs control side” value was “higher than that of the control side”. The figures for the “ROI ratio of model bone/contralateral bone (mean)” value in data set [1] (6 h), in data set [1] (16 h) and in data set [1] (32 h) were 1.245, 1.633 and 1.529, respectively. Besides, the “RCP, in vitro stability” value in data set [2] (0.9% NaCl, 1 h) is 98.14 ± 0.2%; in data set [2] (0.9% NaCl, 3 h) it was 97.82 ± 0.6%; in data set [2] (0.9% NaCl, 6 h), 96.99 ± 1.3%; in data set [2] (0.9% NaCl, 12 h), 95.33 ± 1.1%; in data set [2] (0.9% NaCl, 24 h) it was 91.44% and 91.44 ± 0.8%; in data set [2] (human serum, 1 h), 99.01 ± 0.5%. The “RCP, in vitro stability” value in data set [2] (human serum, 3 h) is 98.67 ± 0.9%; in data set [2] (human serum, 6 h), 98.15 ± 0.8%; in data set [2] (human serum, 12 h) it was 96.90 ± 1.4%; in data set [2] (human serum, 24 h) it was 93.06% and 93.06 ± 1.6%. Also, in the data set on Kunming mice (3.7, 18.5, 37 MBq, 4 weeks), the “Pathology of important tissues and organs vs normal control” value is given as “no abnormal pathological changes”. For the same compound, the “Routine blood and liver and kidney function examination (mean values)” value in the data set with Kunming mice (3.7, 18.5, 37 MBq, 4 weeks) is on record as “within the normal reference range”. Also, the Adverse reactions result in the data set on Kunming mice (3.7, 18.5, 37 MBq, within 4 weeks) is “no adverse reactions”. The “Body weight vs other groups” value in the data set on Kunming mice (high-dose group 37 MBq, 4 weeks) is “inhibited the weight gain of mice to a certain extent”. Also, the “Body weight vs control group” value with Kunming mice (low-dose group 3.7 MBq, 4 weeks) is listed as “no significant difference in weight”; with Kunming mice (medium-dose group 18.5 MBq, 4 weeks), “no significant difference in weight”.
